{"source": "paper PMC8879107", "about": "“A3 Adenosine Receptor Antagonists with Nucleoside Structures and Their Anticancer Activity” (Pharmaceuticals, 2022)", "origin": "cited, not measured here", "key": {"[1]": {"system": "human prostate (PC3), colon (Caco-2) and hepatocyte (Hep G2) carcinomas", "parameters": "method as in PMID 29763615", "conditions": "all three tumor cell lines PC3, Caco-2, Hep G2; cited from earlier work"}, "[2]": {"target": "T1, human A3AR (Homo sapiens, UniProt P0DMS8)", "T1 sequence (P0DMS8 1-318)": "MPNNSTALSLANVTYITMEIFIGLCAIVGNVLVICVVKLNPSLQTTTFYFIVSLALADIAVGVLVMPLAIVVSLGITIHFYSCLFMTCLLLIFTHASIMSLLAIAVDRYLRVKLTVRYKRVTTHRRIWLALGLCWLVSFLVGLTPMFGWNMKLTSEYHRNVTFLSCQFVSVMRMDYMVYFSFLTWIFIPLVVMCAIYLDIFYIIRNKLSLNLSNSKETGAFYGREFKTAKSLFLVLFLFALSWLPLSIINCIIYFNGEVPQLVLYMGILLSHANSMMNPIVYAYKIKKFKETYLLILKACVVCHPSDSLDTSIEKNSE", "parameters": "expressed in transfected cells; host or cells: CHO cells stably expressing A3AR and the GloSensor biosensor plasmid; method as in PMID 29763615, PMID 19839592", "conditions": "cited from earlier work"}}, "data": [{"smiles": "CNC(=O)[C@H]1O[C@@H](n2cnc3c(NC)nc(C#Cc4ccccc4)nc32)[C@H](O)[C@@H]1O", "note": "[Compound 3, N^6-methyl-2-phenylethynyladenosine-5′-N-methyluronamide, reference compound]", "values": [{"measurement": "anticancer effect (cell growth inhibition)", "setting": "[1]", "result": "almost inactive"}, {"measurement": "functional behaviour at A3AR", "setting": "[2]", "result": "full A3AR agonist"}]}]}
